Experimental data reported in US4299767A, “Benzodiazepine derivatives” (Hoffmann-La Roche Inc., priority 1978, dated 1981).
Like-named read-outs stand apart in the source and are kept apart here.

Legend:
aldosterone = assay: aldosterone-antagonistic properties in adrenalectomised rats (urine volume, sodium and potassium excretion); format: in vivo, adrenalectomised female Holtzmann rats; conditions: for response vs control in vivo at 0.1 mg/kg / response vs control in vivo at 10 mg/kg / response vs control in vivo at 1 mg/kg / response vs control in vivo at 3 mg/kg: Rattus norvegicus, po
Experimental: If benzodiazepine derivatives of formula I are administered to the animals before the treatment with aldosterone, then there is observed, in comparison with the animals which are treated only with aldosterone (control animals), a pronounced increase of the sodium excretion (i.e. the sodium retention caused by aldosterone is antagonised), whereas the potassium excretion and the urine volume are influenced to a lesser extent.
The standard experiment is carried out as follows:
Female Holtzmann rates (150-180 g) are bilaterally adrenalectomised 70 to 74 hours before the beginning of the experiment. After the operation, the animals receive a customary rat dry feed and 0.9% sodium chloride solution for drinking. 16-17 hours before the beginning of the experiment the feed is removed from the animals, but they can still drink, as before, 0.9% sodium chloride solution ad libitum. At the beginning of the experiment the substance to be tested as an aldosterone-antagonist is administered to the animals by means of a stomach probe. 30 minutes later the animals receive a subcutaneous injection of […] of aldosterone. After a further 90 minutes, the urinary bladders of the animals are emptied by careful suprapublic pressure, whereupon the animals are placed individually in metabolic cages without food and without drink. The urine of the animals is then collected for 3hours, whereupon their urinary bladders are once more emptied. The spontaneously excreted urine and the remaining urine obtained at the conclusion of the experiment by pressing-out the urinary bladders are collected in graduated centrifuge glasses. Sodium and potassium concentrations in the urine are determined with a flame photometer.
(§1) The following Table contains results obtained in the previously described experiment with representative benzodiazepine derivatives of formula I. In this Table there are given for each benzodiazepine derivative in question the dosage administered (in mg/kg p.o.) as well as the percentage variation in the urine volume, the sodium excretion and the potassium excretion in comparison with the control animals (i.e. in comparison with the animals treated only with aldosterone). Moreover, the Table contains data relating to the acute toxicity of the benzodiazepine derivatives investigated (LD 50 in mg/kg in the case of a single oral administration to mice).

[1] = acute toxicity, single oral administration to mice; conditions: mouse, in vivo, p.o.
Text: as §1

[2] = read-out: potassium excretion [K+], in %, based on control animals
[3] = read-out: sodium excretion [Na+], in %, based on control animals
[4] = read-out: urine volume, in %, based on control animals
[5] = aldosterone alone, in comparison with untreated animals

Compound	LD50 [1]	response vs control in vivo at 10 mg/kg (aldosterone; [2])	response vs control in vivo at 10 mg/kg (aldosterone; [3])	response vs control in vivo at 10 mg/kg (aldosterone; [4])	response vs control in vivo at 1 mg/kg (aldosterone; [2])	response vs control in vivo at 1 mg/kg (aldosterone; [3])	response vs control in vivo at 1 mg/kg (aldosterone; [4])	other results
CN1C(=O)CN=C(c2ccccc2F)c2cc(NC(=O)NCCO)ccc21 [Example 7, 1-[5-(o-fluorophenyl)-2,3-dihydro-1-methyl-2-oxo-1H-1,4-benzodiazepin-7-yl]-3-(2-hydroxyethyl)urea]	> 5000 mg/kg							response vs control in vivo at 0.1 mg/kg (aldosterone; [2]): 121%; response vs control in vivo at 0.1 mg/kg (aldosterone; [3]): 247%; response vs control in vivo at 0.1 mg/kg (aldosterone; [4]): 85%
C[C@]12CCC(=O)C=C1CC[C@@H]1[C@@H]2[C@@H](O)C[C@]2(C=O)[C@@H](C(=O)CO)CC[C@@H]12 [aldosterone, reference compound]								excreted urine volume (aldosterone; [5]): reduction of the excreted urine volume; potassium excretion (aldosterone; [5]): increased potassium excretion; sodium excretion (aldosterone; [5]): pronounced reduction of the sodium excretion
CN(C)C(=O)Nc1ccc2c(c1)C(c1ccccc1F)=NCC(=O)N2C [Example 32, 3-[5-(o-fluorophenyl)-2,3-dihydro-1-methyl-2-oxo-1H-1,4-benzodiazepin-7-yl]-1,1-dimethylurea]	> 5000 mg/kg	91%	190%	102%				
CN1C(=O)CN=C(c2ccccc2F)c2cc(NC(=O)N3CC3)ccc21 [Example 5, N-[5-(o-fluorophenyl)-2,3-dihydro-1-methyl-2-oxo-1H-1,4-benzodiazepin-7-yl]-1-aziridinecarboxamide]	> 5000 mg/kg	108%	237%	129%	146%	294%	192%	
CCN(C)C(=O)Nc1ccc2c(c1Cl)C(c1ccccc1F)=NCC(=O)N2C [Example 12, 3-[6-chloro-5-(o-fluorophenyl)-2,3-dihydro-1-methyl-2-oxo-1H-1,4-benzodiazepin-7-yl]-1-ethyl-1-methylurea]	2500 to 5000 mg/kg				118%	278%	136%	
CCN(C)C(=O)Nc1ccc2c(c1)C(c1ccccc1F)=NCC(=O)N2C [Example 4, 1-ethyl-3-[5-(o-fluorophenyl)-2,3-dihydro-1-methyl-2-oxo-1H-1,4-benzodiazepin-7-yl]-1-methylurea]	> 5000 mg/kg				97%	291%	100%	
CCNC(=O)Nc1ccc2c(c1Cl)C(c1ccccc1F)=NCC(=O)N2C [Example 34, 1-[6-chloro-5-(o-fluorophenyl)-2,3-dihydro-1-methyl-2-oxo-1H-1,4-benzodiazepin-7-yl]-3-ethylurea]	2500 to 5000 mg/kg	149%	271%	156%				
CN1C(=O)CN=C(c2ccccc2F)c2c1ccc(NC(=O)NCCO)c2Cl [Example 13, 1-[6-chloro-5-(o-fluorophenyl)-2,3-dihydro-1-methyl-2-oxo-1H-1,4-benzodiazepin-7-yl]-3-(2-hydroxyethyl)urea]	> 5000 mg/kg				110%	242%	140%	
CN1C(=O)CN=C(c2ccccc2F)c2cc(NC(=O)NCc3ccccc3)ccc21 [Example 3, 1-benzyl-3-[5-(o-fluorophenyl)-2,3-dihydro-1-methyl-2-oxo-1H-1,4-benzodiazepin-7-yl]urea]	> 5000 mg/kg				153%	255%	139%	
CCCCNC(=O)Nc1ccc2c(c1Cl)C(c1ccccc1F)=NCC(=O)N2C [Example 10, 1-butyl-3-[6-chloro-5-(o-fluorophenyl)-2,3-dihydro-1-methyl-2-oxo-1H-1,4-benzodiazepin-7-yl]urea]	> 5000 mg/kg				104%	380%	175%	
CC(CO)NC(=O)Nc1ccc2c(c1)C(c1ccccc1F)=NCC(=O)N2C (racemic) [Example 8, rac-1-[5-(o-fluorophenyl)-2,3-dihydro-1-methyl-2-oxo-1H-1,4-benzodiazepin-7-yl]-3-(2-hydroxy-1-methylethyl)urea]	> 5000 mg/kg	129%	452%	200%	80%	127%	73%	
CN1C(=O)CN=C(c2ccccc2F)c2cc(NC(=O)N3CCCC3)ccc21 [Example 6, N-[5-(o-fluorophenyl)-2,3-dihydro-1-methyl-2-oxo-1H-1,4-benzodiazepin-7-yl]-1-pyrrolidinecarboxamide]	> 5000 mg/kg				112%	308%	184%	
CNC(=O)Nc1ccc2c(c1)C(c1ccccc1F)=NCC(=O)N2C [Example 1, 1-[5-(o-Fluorophenyl)-2,3-dihydro-1-methyl-2-oxo-1H-1,4-benzodiazepin-7-yl]-3-methylurea]	> 5000 mg/kg							response vs control in vivo at 3 mg/kg (aldosterone; [2]): 84%; response vs control in vivo at 3 mg/kg (aldosterone; [3]): 182%; response vs control in vivo at 3 mg/kg (aldosterone; [4]): 95%
CCN(CC)C(=O)Nc1ccc2c(c1Cl)C(c1ccccc1F)=NCC(=O)N2C [Example 11, 3-[6-chloro-5-(o-fluorophenyl)-2,3-dihydro-1-methyl-2-oxo-1H-1,4-benzodiazepin-7-yl]-1,1-diethylurea]	> 5000 mg/kg	110%	236%	124%				
CNC(=O)Nc1ccc2c(c1Cl)C(c1ccccc1F)=NCC(=O)N2C [Example 9, 1-[6-chloro-5-(o-fluorophenyl)-2,3-dihydro-1-methyl-2-oxo-1H-1,4-benzodiazepin-7-yl]-3-methylurea]	1250 to 2500 mg/kg				91%	330%	178%	
COc1ccc(NC(=O)Nc2ccc3c(c2)C(c2ccccc2F)=NCC(=O)N3C)cc1 [Example 33, 1-[5-(o-fluorophenyl)-2,3-dihydro-1-methyl-2-oxo-1H-1,4-benzodiazepin-7-yl]-3-(p-methoxyphenyl)urea]	> 5000 mg/kg	145%	240%	117%				
CN1C(=O)CN=C(c2ccccc2F)c2cc(NC(=O)NC(C)(C)C)ccc21 [Example 2, 1-tert.butyl-3-[5-(o-fluorophenyl)-2,3-dihydro-1-methyl-2-oxo-1H-1,4-benzodiazepin-7-yl]urea]	600 to 1200 mg/kg	70%	234%	105%	132%	236%	194%	
